These results are taken from US20110092524A1, “Agent for Enhancing Corneal Epithelial Barrier Function” (SANTEN PHARMACEUTICAL CO., LTD., priority 2008, published 2011).

Where two headings read alike, the source gives them in different places.

In experiment [1] the test system is SV40-immortalized human corneal epithelial cells (HCE-T). The experiment is described as follows: Enhancing effect of PPARγ agonist on barrier function (membrane electrical resistance of corneal epithelial cell layer). The format is cell-based. To be noted: for Membrane electrical resistance: five days after seeding, average of four experiments, base culture 296.0. Here is the method:
The PPARγ agonist was evaluated with respect to the enhancing effect on the barrier function of a corneal epithelial cell. For the corneal epithelial cell, an SV40-immortalized human corneal epithelial cell line was used, utilizing a membrane electrical resistance as an index of the barrier function. When the bather function of the corneal epithelial cell is enhanced, the membrane electrical resistance increases, while the bather function is reduced, the membrane electrical resistance decreases.
From RIKEN BioResource Center, SV40-immortalized human corneal epithelial cells (HCE-T) were obtained. […] As the culture medium, a DMEM/Ham's F12 (Nacalai Tesque, Inc.) containing 15% fetal bovine serum (ICN) and 40 μg/mL of gentamicin (Gibco) was used. […] The concentration mentioned above was attained by dissolving each sample in DMSO and diluting 1,000-fold with the culture medium. In addition, a culture medium containing DMSO alone was used as a base culture medium.
Five days after the seeding, an electrical resistance of an epithelial cell layer was measured using a membrane electrical resistance measurement system (World Precision Instruments). A well containing the base medium alone with no corneal epithelial cell seeded was measured as a blank, and the value was subtracted from the electrical resistance of the epithelial cell layer. The resultant value was multiplied by an area of the cell culture (0.33 cm^2), to thereby obtain an electrical resistance (Ω·cm^2) per unit area.

The test system is the same in experiment [2]. Briefly: Influence of PPARγ antagonist on barrier function enhancing effect of PPARγ agonist (membrane electrical resistance). The format is cell-based. As to conditions: for Membrane electrical resistance: five days after seeding, average of four experiments, base culture 434.1. Here is the method: An influence of the PPARγ antagonist was evaluated with respect to the barrier function enhancing effect of the PPARγ agonist, and it was examined whether or not the enhancing effect on the barrier function is based on the activity of the PPARγ agonist.
From RIKEN BioResource Center, SV40-immortalized human corneal epithelial cells (HCE-T) were obtained. On a culture insert of 24-well Transwell Clear (Corning Incorporated) were seeded 6.4×10^4 cells of HCE-T, and incubated at 37° C. in 5% CO2. As the culture medium, a DMEM/Ham's F12 (Nacalai Tesque, Inc.) containing 15% fetal bovine serum (ICN) and 40 μg/mL of gentamicin (Gibco) was used. The culture medium was removed after 9 hours, 2 days, 3 days and 4 days, and replaced with a culture medium containing the PPARγ agonist and the PPARγ antagonist to thereby obtain samples. As the PPARγ agonist, rivoglitazone [0.1 μM] was used, and as the PPARγ antagonist, 2-chloro-5-nitrobenzanilide (GW-9662) [0.03 μM, 0.1 μM] was used. The concentrations mentioned above were attained by dissolving each sample in DMSO and diluting 1,000-fold with the culture medium. In addition, a culture containing DMSO alone was used as a base culture medium.
Five days after the seeding, an electrical resistance of an epithelial cell layer was measured using a membrane electrical resistance measurement system (World Precision Instruments). A well containing the base medium alone with no corneal epithelial cell seeded was measured as a blank, and the value was subtracted from the electrical resistance of the epithelial cell layer. The resultant value was multiplied by an area of the cell culture (0.33 cm^2), to thereby obtaining an electrical resistance (Ω·cm^2) per unit area.

For the compound `COc1ccc(OC(=O)N(CC(=O)O)Cc2ccc(OCCc3nc(-c4ccccc4)oc3C)cc2)cc1` [BMS-298585, N-[(4-methoxyphenoxy)carbonyl]-N-[[4-[2-(5-methyl-2-phenyl-4-oxazolyl)ethoxy]phenyl]methyl]glycine], in experiment [1], the “barrier function enhancing effect (in words)” value is reported as “excellent barrier function enhancing effect”.
For `C/C(=C/C(=O)c1ccccc1)N[C@@H](Cc1ccc(OCCc2nc(-c3ccccc3)oc2C)cc1)C(=O)O` [GW-544, N-[1-methyl-3-oxo-3-phenyl-1(Z)-propenyl]-O-[2-(5-methyl-2-phenyloxazol-4-yl)ethyl]-L-tyrosine], the “barrier function enhancing effect (in words)” value in experiment [1] was “excellent barrier function enhancing effect”.
On to `O=C(Nc1ccccc1)c1cc([N+](=O)[O-])ccc1Cl` [GW-9662, 2-chloro-5-nitrobenzanilide], for which the “antagonism of the barrier function enhanced by rivoglitazone (in words)” value was “concentration-dependently reduced” in experiment [2] (GW-9662 0.03 μM and 0.1 μM with rivoglitazone 0.1 μM); “completely antagonized” in experiment [2] (GW-9662 at 0.1 μM with rivoglitazone 0.1 μM).
Take `CCc1ccc(CCOc2ccc(CC3SC(=O)NC3=O)cc2)nc1` (centres unmarked) [Pioglitazone, 5-[[4-[2-(5-ethyl-2-pyridinyl)ethoxy]phenyl]methyl]-2,4-thiazolidinedione]: the Membrane electrical resistance in experiment [1] (sample 10 μM, HCE-T) is reported as 350.3 Ω · cm^2.
Regarding `COc1ccc2nc(COc3ccc(CC4SC(=O)NC4=O)cc3)n(C)c2c1` (centres unmarked) [Rivoglitazone, 5-[4-(6-methoxy-1-methyl-1H-benzimidazol-2-ylmethoxy)benzyl]thiazolidine-2,4-dione], the “barrier function enhancing effect (in words)” value in experiment [1] (sample 10 μM, HCE-T, compared with base culture medium) is on record as “extremely strong barrier function enhancing effect”. For the same compound, the Membrane electrical resistance in experiment [1] (sample 10 μM, HCE-T) was 615.9 Ω · cm^2; in experiment [2] (rivoglitazone 0.1 μM alone), 538.8 Ω · cm^2; in experiment [2] (rivoglitazone 0.1 μM and GW-9662 0.03 μM), 473.5 Ω · cm^2; in experiment [2] (rivoglitazone 0.1 μM and GW-9662 0.1 μM), 429.3 Ω · cm^2.
`CN(CCOc1ccc(CC2SC(=O)NC2=O)cc1)c1ccccn1` (centres unmarked) [Rosiglitazone, 5-[p-[2-(methyl-2-pyridylamino)ethoxy]benzyl]-2,4-thiazolidinedione]: the Membrane electrical resistance in experiment [1] (sample 10 μM, HCE-T) is on record as 343.2 Ω · cm^2.
